pKi: −log10 of the molar value.
Experiments:
[1] = molecular target: human vasopressin V1a receptor (Homo sapiens, UniProt P37288); test: Vasopressin V1a receptor binding assay (125I-AVP displacement, CHO-K1 membranes); settings: selectivity quotient, human V1a vs human V1b
[2] = molecular target: T1, recombinant human oxytocin receptors (Homo sapiens, UniProt P30559); test: Oxytocin receptor binding assay (3H-oxytocin, HEK-293 cells); settings: selectivity quotient, human OT vs human V1b
T1 construct: expressed in transfected cells; host or cells: HEK-293, transient expression; lysed and homogenized cells
T1 sequence (P30559 1-389): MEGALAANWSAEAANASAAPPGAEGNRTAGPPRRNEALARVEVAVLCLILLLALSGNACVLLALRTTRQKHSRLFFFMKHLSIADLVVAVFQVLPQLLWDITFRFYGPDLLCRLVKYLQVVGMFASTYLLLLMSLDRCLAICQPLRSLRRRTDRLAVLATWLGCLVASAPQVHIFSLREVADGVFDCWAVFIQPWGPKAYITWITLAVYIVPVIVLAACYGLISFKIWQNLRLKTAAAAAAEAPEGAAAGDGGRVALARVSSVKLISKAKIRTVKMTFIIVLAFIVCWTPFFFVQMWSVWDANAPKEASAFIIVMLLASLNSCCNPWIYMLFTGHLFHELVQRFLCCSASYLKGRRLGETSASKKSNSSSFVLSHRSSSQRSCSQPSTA
Description: The residue was taken up in ice-cold lysis buffer (50 mM Tris-HCl, 10% glycerol, pH 7.4 and Roche complete protease inhibitor) and subjected to an osmotic shock at 4° C. for 20 minutes. The lyzed cells were then centrifuged at 750×g at 4° C. for 20 minutes, the residue was taken up in incubation buffer, and aliquots of 10^7 cells/ml were prepared. The aliquots were frozen at −80° C. until used.
On the day of the experiment, the cells were thawed, diluted with incubation buffer and homogenized using a Multipette Combitip (Eppendorf, Hamburg). […] Triplicate determinations were set up. Bound and free radioligand were separated by filtration under vacuum with Whatman GF/B glass fiber filters with the aid of a Skatron cell harvester 7000. The bound radioactivity was determined by liquid scintillation measurement in a Tricarb Beta counter, model 2000 or 2200CA (Packard).

[3] = molecular target: T2, human vasopressin V1b receptor (Homo sapiens, UniProt P47901); test: Vasopressin V1b receptor binding assay (3H-AVP displacement, CHO-K1 membranes)
T2 construct: expressed in transfected cells; host or cells: CHO-K1 (cell line hV1b_3H2_CHO), membranes
T2 sequence (P47901 1-424): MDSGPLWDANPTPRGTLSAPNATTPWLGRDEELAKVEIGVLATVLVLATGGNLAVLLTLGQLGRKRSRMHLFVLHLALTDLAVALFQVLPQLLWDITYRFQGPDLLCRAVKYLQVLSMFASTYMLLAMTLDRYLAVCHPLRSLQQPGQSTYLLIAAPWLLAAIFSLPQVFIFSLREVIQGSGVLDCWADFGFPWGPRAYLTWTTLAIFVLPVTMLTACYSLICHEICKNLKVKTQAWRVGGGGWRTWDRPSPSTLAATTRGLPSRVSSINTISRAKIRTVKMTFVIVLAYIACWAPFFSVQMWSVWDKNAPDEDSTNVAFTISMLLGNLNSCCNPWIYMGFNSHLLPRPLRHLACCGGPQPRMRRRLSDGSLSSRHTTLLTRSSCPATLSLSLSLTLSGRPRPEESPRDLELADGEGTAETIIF
Description: 1. Vasopressin V1b Receptor Binding Assay:
The substance concentration was further diluted 1:5 in the assay mixture (2% DMSO in the mixture).
All determinations were carried out as triplicate determinations.

Chain of human vasopressin V1a receptor (P37288 whole entry): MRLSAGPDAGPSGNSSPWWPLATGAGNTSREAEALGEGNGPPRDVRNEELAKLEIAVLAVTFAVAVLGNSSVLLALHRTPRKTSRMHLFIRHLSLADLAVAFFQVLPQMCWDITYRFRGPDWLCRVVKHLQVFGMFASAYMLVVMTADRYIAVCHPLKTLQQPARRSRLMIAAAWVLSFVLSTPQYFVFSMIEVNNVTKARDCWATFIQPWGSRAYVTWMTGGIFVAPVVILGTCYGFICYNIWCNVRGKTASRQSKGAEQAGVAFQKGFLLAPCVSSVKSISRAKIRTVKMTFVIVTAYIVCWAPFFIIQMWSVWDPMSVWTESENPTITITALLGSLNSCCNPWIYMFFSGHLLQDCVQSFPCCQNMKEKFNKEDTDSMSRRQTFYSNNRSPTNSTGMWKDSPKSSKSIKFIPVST

Structure (SMILES)	Ki(h-V1a)/Ki(h-V1b)* [1]	Ki(h-OT)/Ki(h-V1b)* [2]	pKi [3]
CCOc1ncccc1C1(NCc2ccc(N3CCN(C)CC3)cc2)C(=O)N(S(=O)(=O)c2ccc(OC)cc2)c2cc(F)c(C#N)cc21 (stereo not drawn) [Example 33, 3-(2-Ethoxypyridin-3-yl)-6-fluoro-1-(4-methoxyphenylsulfonyl)-3-[4-(4-methylpiperazin-1-yl)benzylamino]-2-oxo-2,3-dihydro-1H-indole-5-carbonitrile]	+++ (>75)	+++ (>75)	> 9.00
CCOc1ncccc1C1(NCc2ccc(N3CCNCC3)cc2)C(=O)N(S(=O)(=O)c2ccc(OC)cc2)c2ccc(C#N)cc21 (stereo not drawn) [Example 30, 3-(2-Ethoxypyridin-3-yl)-1-(4-methoxyphenylsulfonyl)-2-oxo-3-(4-piperazin-1-yl-benzylamino)-2,3-dihydro-1H-indole-5-carbonitrile]	+++ (>75)	+++ (>75)	8.00 to 9.00
CCOc1ncccc1C1(NC(=O)c2ccc(N3CCN(C)CC3)cc2)C(=O)N(S(=O)(=O)c2ccc(OC)cc2OC)c2ccc(C#N)cc21 (stereo not drawn) [Example 6, N-[5-Cyano-1-(2,4-dimethoxyphenylsulfonyl)-3-(2-ethoxypyridin-3-yl)-2-oxo-2,3-dihydro-1H-indol-3-yl]-4-(4-methylpiperazin-1-yl)benzamide]	+++ (>75)	++ (25-75)	8.00 to 9.00
CCOc1ncccc1C1(NCc2ccc(N3CCN(C)CC3)cc2)C(=O)N(S(=O)(=O)c2ccc(Cl)cc2)c2ccc(C#N)cc21 (stereo not drawn) [Example 26, 1-(4-Chlorophenylsulfonyl)-3-(2-ethoxypyridin-3-yl)-3-[4-(4-methylpiperazin-1-yl)-benzylamino]-2-oxo-2,3-dihydro-1H-indole-5-carbonitrile]	++ (25-75)	+++ (>75)	7.00 to 8.00

Now from value to compound:

Ki(h-V1a)/Ki(h-V1b)* [1]	Ki(h-OT)/Ki(h-V1b)* [2]	pKi [3]	Structure (SMILES)
+ (10-<25)	+ (10-<25)	8.00 to 9.00	CCOc1ncccc1C1(NCc2cccc(N3CCN(C)CC3)c2)C(=O)N(S(=O)(=O)c2ccc(OC)cc2OC)c2ccc(I)cc21 (stereo not drawn) [Example 38, 1-(2,4-Dimethoxyphenylsulfonyl)-3-(2-ethoxypyridin-3-yl)-5-iodo-3-[3-(4-methylpiperazin-1-yl)benzylamino]-1,3-dihydroindol-2-one]
+ (10-<25)	+++ (>75)	8.00 to 9.00	CCOc1ncccc1C1(NCc2ccc(N3CCNCC3)cc2)C(=O)N(S(=O)(=O)c2ccc(OC)cc2)c2cc(F)c(C#N)cc21 (stereo not drawn) [Example 34, 3-(2-Ethoxypyridin-3-yl)-6-fluoro-1-(4-methoxyphenylsulfonyl)-2-oxo-3-(4-piperazin-1-yl-benzylamino)-2,3-dihydro-1H-indole-5-carbonitrile]
++ (25-75)	+++ (>75)	7.00 to 8.00	CCOc1ncccc1C1(Nc2ccc(N3CCN(CC)CC3)cc2)C(=O)N(S(=O)(=O)c2ccc(OC)cc2)c2ccc(C#N)cc21 (stereo not drawn) [Example 57, 3-(2-Ethoxypyridin-3-yl)-3-[4-(4-ethylpiperazin-1-yl)phenylamino]-1-(4-methoxyphenylsulfonyl)-2-oxo-2,3-dihydro-1H-indole-5-carbonitrile]
++ (25-75)	++ (25-75)	8.00 to 9.00	CCOc1ncccc1C1(NCc2cccc(N3CCN(C)CC3)c2)C(=O)N(S(=O)(=O)c2ccc(OC)cc2)c2ccc(I)cc21 (stereo not drawn) [Example 40, 3-(2-Ethoxypyridin-3-yl)-5-iodo-1-(4-methoxyphenylsulfonyl)-3-[3-(4-methylpiperazin-1-yl)-benzylamino]-1,3-dihydroindol-2-one]
+ (10-<25)	++ (25-75)	8.00 to 9.00	CCOc1ncccc1C1(Nc2ccc(N3CCN(C)CC3)nc2)C(=O)N(S(=O)(=O)c2ccc(OC)cc2)c2ccc(I)cc21 (stereo not drawn) [Example 68, 3-(2-Ethoxypyridin-3-yl)-5-iodo-1-(4-methoxyphenylsulfonyl)-3-[6-(4-methylpiperazin-1-yl)-pyridin-3-ylamino]-1,3-dihydroindol-2-one]

Source: patent publication US8629148B2, “Substituted oxindole-derivatives and the use thereof for the treatment of vasopressin-dependent illnesses” (AbbVie Deutschland GmbH & Co. KG, priority 2007, dated 2014)
